Tests used:
Assay type in all cases: nucleic-acid assay
Nucleic Acid [1] = assay: Binding affinity to 2-AP labeled mutant RNA2 by fluorescence binding assay
Nucleic Acid [2] = assay: Binding affinity to 2-AP labeled mutant RNA3 by fluorescence binding assay
Nucleic Acid [3] = assay: Binding affinity to 2-AP labeled mutant RNA7 by fluorescence binding assay
Nucleic Acid [4] = assay: Binding affinity to 2-AP labeled mutant RNA5 by fluorescence binding assay
Nucleic Acid [5] = assay: Binding affinity to 2-AP labeled mutant RNA8 by fluorescence binding assay
Nucleic Acid [6] = assay: Binding affinity to 2-AP labeled mutant RNA6 by fluorescence binding assay
Nucleic Acid [7] = assay: Binding affinity to 2-AP labeled mutant RNA4 by fluorescence binding assay
Nucleic Acid [8] = assay: Binding affinity to 2-AP labeled RNA1 by fluorescence binding assay

Row | Kd (Nucleic Acid [1]) [µM] | Kd (Nucleic Acid [2]) [µM] | Kd (Nucleic Acid [3]) [µM] | Kd (Nucleic Acid [4]) [µM] | Kd (Nucleic Acid [5]) [µM] | Kd (Nucleic Acid [6]) [µM] | Kd (Nucleic Acid [7]) [µM] | Kd (Nucleic Acid [8]) [µM] | Structure (SMILES)
1 | 1.5 | 2.2 | 2.9 | 0.5 | 1.4 | 1.4 | 1.7 | 2.2 | CO[C@@H]1C[C@H](NC(=O)[C@@H]2C[C@H](O[C@H]3O[C@H](CN)[C@@H](O)[C@H](O)[C@H]3N)[C@@H](N)C[C@H]2N)[C@@H](N)C[C@H]1N
2 |  | 1.1 | 1.1 | 1.1 |  |  |  | 1.5 | NC[C@@H]1O[C@H](O[C@H]2[C@@H](O)[C@H](O[C@@H]3[C@@H](O)[C@H](N)C[C@H](N)[C@H]3O[C@H]3O[C@H](CN)[C@@H](O)[C@H](O)[C@H]3N)O[C@@H]2CO)[C@H](N)[C@@H](O)[C@@H]1O [FRAMYCETIN]

From ChEMBL document CHEMBL1806453, “Conjugate of neamine and 2-deoxystreptamine mimic connected by an amide bond” (Bioorg Med Chem Lett, 2011)
